Data on 13 molecules can be found in ChEMBL document CHEMBL1938341, “Alkylated flavanones from the bark of Cryptocarya chartacea as dengue virus NS5 polymerase inhibitors” (J Nat Prod, 2011).

Data set [1] can be described thus: Inhibition of Dengue virus 2 NS5 polymerase-mediated RNA synthesis expressed in Escherichia coli Rosetta pLac1 cells assessed as [3H]GTP incorporation after 5 mins by scintillation counting. Details: species or system dengue virus type 2; call rule not given here.
Data set [2] in a line: Growth inhibition of human KB cells at 10 ug/ml. The class given is cell-based. To be noted: read-out: GI.
The nature of data set [3]: Inhibition of Bovine diarrhea virus NS5 polymerase-mediated RNA synthesis expressed in Escherichia coli Rosetta pLac1 cells assessed as [3H]GTP incorporation after 5 mins by scintillation counting. Set-up: species or system Bovine viral diarrhea virus 1.
Data set [4] concerns KB. The data set is described as follows: Cytotoxicity against human KB cells. The class given is cell-based.

For orientation: IC50 means the concentration that inhibits the measured activity by half.

For `O=C(O)CCC[C@H](/C=C/c1ccccc1)c1c(O)cc2c(c1O)C(=O)C[C@@H](c1ccccc1)O2` [CHARTACEONE A3], the IC50 in data set [1] (read-out: IC50) is 27 µM; in data set [3], > 50 µM. Further, the inhibition at 10 ug/ml in data set [2] came to 0%.

As to `O=C(O)CCC/C=C/C(c1ccccc1)c1c(O)c2c(c(C(/C=C/CCCC(=O)O)c3ccccc3)c1O)OC(c1ccccc1)CC2=O` (racemic), the IC50 was 4.2 µM in data set [1] (read-out: IC50) and > 50 µM in data set [3]. Also, the inhibition at 10 ug/ml in data set [2] was 0%.

Consider `O=C(O)CCC[C@@H](/C=C/c1ccccc1)c1c(O)cc2c(c1O)C(=O)C[C@H](c1ccccc1)O2`, for which the IC50 in data set [1] (read-out: IC50) was 9 µM; in data set [3], > 50 µM. Moreover, in data set [2], the inhibition at 10 ug/ml amounted to 11%.

On to `CC(=O)O[C@@]12CO[C@@H]1C[C@H](O)[C@@]1(C)C(=O)[C@H](O)C3=C(C)[C@@H](OC(=O)[C@H](O)[C@@H](NC(=O)OC(C)(C)C)c4ccccc4)C[C@@](O)([C@@H](OC(=O)c4ccccc4)[C@H]21)C3(C)C` [DOCETAXEL], for which, in data set [4], the IC50 was 0.015 µM.

Consider `O=C1C[C@@H](c2ccccc2)Oc2cc(O)cc(O)c21` [PINOCEMBRIN], for which, in data set [1], the 50% inhibitory concentration (IC50) entry is given as “Not Active”. In addition, in data set [2], the inhibition at 10 ug/ml stood at 0%.

Take `Nc1nc2c(ncn2[C@@H]2O[C@H](COP(=O)(O)OP(=O)(O)OP(=O)(O)O)C[C@H]2O)c(=O)[nH]1`: the IC50 in data set [1] (read-out: IC50) is 0.02 µM; in data set [3], < 1 µM.

In the case of `O=C(O)CCCC(/C=C/c1ccccc1)c1c(O)c2c(c(C(/C=C/c3ccccc3)CCCC(=O)O)c1O)OC(c1ccccc1)CC2=O` (racemic), the IC50 was 2.4 µM in data set [1] (read-out: IC50) and > 50 µM in data set [3]. The inhibition at 10 ug/ml in data set [2] worked out at 0%.

Consider `O=C(O)CCC/C=C/C(c1ccccc1)c1c(O)c(C(/C=C/c2ccccc2)CCCC(=O)O)c(O)c2c1OC(c1ccccc1)CC2=O` (racemic), for which the results for the IC50 in data set [1] (read-out: IC50) and in data set [3] were 2.9 µM and > 50 µM, respectively. Also, the inhibition at 10 ug/ml in data set [2] was 0%.

Take `O=C(O)CCC[C@@H](/C=C/c1ccccc1)c1c(O)cc2c(c1O)C(=O)C[C@@H](c1ccccc1)O2` [CHARTACEONE A4]: the figures for the IC50 in data set [1] (read-out: IC50) and in data set [3] were 7.4 µM and > 50 µM, respectively. Moreover, in data set [2], the inhibition at 10 ug/ml was 6%.

Turning to `O=C(O)CCC/C=C/C(c1ccccc1)c1c(O)c2c(c(C(/C=C/c3ccccc3)CCCC(=O)O)c1O)OC(c1ccccc1)CC2=O` (racemic), the IC50 was 1.8 µM in data set [1] (read-out: IC50) and > 50 µM in data set [3]. In data set [2], the inhibition at 10 ug/ml is 0%.

As for `O=C(O)CCCC(/C=C/c1ccccc1)c1c(O)cc2c(c1O)C(=O)CC(c1ccccc1)O2` (racemic), the IC50 in data set [1] (read-out: IC50) is 14.8 µM; in data set [3], > 50 µM. In addition, the inhibition at 10 ug/ml in data set [2] was determined as 3.2%.

For `O=C(O)CCC[C@H](/C=C/c1ccccc1)c1c(O)cc2c(c1O)C(=O)C[C@H](c1ccccc1)O2`, the IC50 in data set [1] (read-out: IC50) was 15.3 µM; in data set [3], > 50 µM. Also, the inhibition at 10 ug/ml in data set [2] came to 0%.

In the case of `O=C(O)CCC/C=C/C(c1ccccc1)c1c(O)cc2c(c1O)C(=O)CC(c1ccccc1)O2` (racemic), the figures for the IC50 in data set [1] (read-out: IC50) and in data set [3] were 72.5 µM and > 50 µM, respectively. The inhibition at 10 ug/ml in data set [2] was 0%.
